From patent US20080293696A1, “2-Aminoarylcarboxamides Useful as Cancer Chemotherapeutic Agents” (Bayer Pharmaceuticals Corporation, priority 2004, published 2008) come the findings set out here.

Each structure is given as a SMILES string. Bounds are passed on as bounds.

This experiment has as its system PAKT/PKB (p-(S473) AKT) in H209 small cell lung carcinoma cells stimulated with Stem Cell Factor. As to the kind of experiment: PAKT/PKB Cytoblot Assay with H209 cells (SCF-stimulated p-(S473) AKT). Type of experiment: cell-based. The conditions noted are these: Homo sapiens, NCI-H209, compound 1 hour, SCF 25 ng/mL 5 minutes. The method, then:
PAKT/PKB Cytoblot Assay Protocol with H209 Cells
H209 small cell lung carcinoma cells in log phase were plated at 50,000 cells/well in 96-well poly-lysine coated, clear bottom/black-sided plates (BD Cat # 354640) in 100 μl RPMI medium containing 0.1% (w/v) BSA, and incubated overnight at 37° C. in 5% CO2 incubator. The following day, compounds (10 mM stock solutions in DMSO) were added to the plates to generate final concentrations of 0.0, 0.01, 0.03, 0.1, 0.3, 1.0, 3.0 and 10 μM for IC50 determinations and incubated for 1 hour at 37° C. Cells were then left untreated or stimulated with Stem Cell Factor (SCF: Biosource Cat # PHC2116) at a final concentration of 25 ng/mL for 5 minutes at 37° C. in 5% CO2 incubator. The media was then removed using a vacuum manifold and the cells were washed once with Tris Buffered Saline (TBS).
Cells were then fixed by adding 200 μl of cold 3.7% (v/v) formaldehyde in TBS to each well for 15 minutes at 4° C. After removal of the formaldehyde, the cells were treated with the addition of 50 μl of methanol (at −20° C.) to each well for 5 minutes. After removal of the methanol, […] of 1% (w/v) BSA in TBS was added to each well to block non-specific antibody binding sites and the plate was incubated at room temperature for 30 minutes.
After removal of the blocking buffer, 50 μl of p-(S473) AKT rabbit polyclonal antibody (Cell Signaling Cat # 9277S) was added at a dilution of 1:250 in 0.1% (w/v) BSA in TBS, and the plate was incubated at room temperature for 1 hour. Plates were then washed 3 times with cold TBS containing 0.05% (v/v) Tween 20 (TBS-T) and […] of Horseradish peroxidase (HRP)-conjugated goat-anti-rabbit antibody (Amersham Cat # NA934V) at a dilution of 1:250 in TBS-T was added and the plate was incubated at room temperature for 1 h. After washing with ice-cold TBS-T four times, 100 μl of Enhanced Chemiluminescence (ECL) reagent (Amersham Cat# RPN2209) was added to each well and mixed on a mini-orbital shaker for 1 min. The plate was then read on a Perkin Elmer Victor 5 Multilabel Counter (#1420-0421).

The term IC50 denotes the concentration that gives 50% inhibition. `N#Cc1cc(CNc2ccccc2C(=O)Nc2ccc3c(c2)OC(F)(F)C(F)(F)O3)ccn1` [Example 22, 2-{[(2-cyanopyridin-4-yl)methyl]amino}-N-(2,2,3,3-tetrafluoro-2,3-dihydro-1,4-benzodioxin-6-yl)benzamide]: for the setting “group: less than 500 nM”, the IC50 was under 500 nM.

For the compound `O=C(Nc1ccc2c(c1)OC(F)(F)O2)c1ccc(F)cc1NCc1ccncc1` [Example 21, N-(2,2-difluoro-1,3-benzodioxol-5-yl)-4-fluoro-2-[(pyridin-4-ylmethyl)amino]benzamide], the IC50 (group: less than 500 nM) was under 500 nM.

`CCN(CCNC(=O)c1cc(CNc2ccccc2C(=O)Nc2ccc3c(c2)OC(F)(F)O3)ccn1)c1cccc(C)c1` [Example 106, 4-{[(2-{[(2,2-difluoro-1,3-benzodioxol-5-yl)amino]carbonyl}phenyl)amino]methyl}-N-{2-[ethyl(3-methylphenyl)amino]ethyl}pyridine-2-carboxamide]: the IC50 (group: between 1 and 3 μM) is 1000 to 3000 nM.

For the compound `CN(C)CCCNc1cc(CNc2ccccc2C(=O)Nc2ccc3c(c2)OC(F)(F)O3)ccn1` [Example 143, N-(2,2-difluoro-1,3-benzodioxol-5-yl)-2-{[(2-{[3-(dimethylamino)propyl]amino}pyridin-4-yl)methyl]amino}benzamidebis(trifluoroacetate)], the IC50 (group: less than 500 nM) was under 500 nM.

On to `O=C(Nc1ccc2c(c1)OC(F)(F)O2)c1ccccc1NCc1ccncc1` [Example 5, N-(2,2-difluoro-1,3-benzodioxol-5-yl)-2-[(pyridin-4-ylmethyl)amino]benzamide], for which the IC50 (group: less than 500 nM) was under 500 nM.

Consider `COCC(=O)Nc1cc(CNc2ccccc2C(=O)Nc2ccc3c(c2)OC(F)(F)O3)ccn1` [Example 155, N-(2,2-difluoro-1,3-benzodioxol-5-yl)-2-[({2-[(methoxyacetyl)amino]pyridin-4-yl}methyl)amino]benzamide], for which the IC50 (group: less than 500 nM) is under 500 nM.

`CN(C)CCCNC(=O)c1cc(CNc2ccccc2C(=O)Nc2ccc3c(c2)OC(F)(F)O3)ccn1` [Example 86, 4-{[(2-{[(2,2-difluoro-1,3-benzodioxol-5-yl)amino]carbonyl}phenyl)amino]methyl}-N-[3-(dimethylamino)propyl]pyridine2-carboxamide] had an IC50 (group: less than 500 nM) of under 500 nM.

Turning to `COC(=O)c1cc(CNc2ccccc2C(=O)Nc2ccc3c(c2)OC(F)(F)O3)ccn1` [Example 76, methyl 4-{[(2-{[(2,2-difluoro-1,3-benzodioxol-5-yl)amino]-carbonyl}phenyl)amino]methyl}pyridine-2-carboxylate], the IC50 (group: less than 500 nM) was under 500 nM.

`O=C(NCCCO)c1cc(CNc2ccccc2C(=O)Nc2ccc3c(c2)OC(F)(F)O3)ccn1` [Example 93, 4-{[(2-{[(2,2-difluoro-1,3-benzodioxol-5-yl)amino]carbonyl}phenyl)amino]methyl}-N-(3-hydroxypropyl)pyridine-2-carboxamide]: where the note is “group: between 1 and 3 μM”, the IC50 lay within 1000 to 3000 nM.

`CN(C)C(=O)Nc1cc(CNc2ccccc2C(=O)Nc2ccc3c(c2)OC(F)(F)O3)ccn1` [Example 174, N-(2,2-difluoro-1,3-benzodioxol-5-yl)-2-{[(2-{[(dimethylamino)carbonyl]amino}pyridin-4-yl)methyl]amino}benzamide] came in with an IC50 (group: less than 500 nM) of under 500 nM.

`O=C(Nc1ccc2c(c1)OC(F)(F)C(F)(F)O2)c1ncccc1NCc1ccncc1` [Example 17, 3-[(Pyridin-4-ylmethyl)amino]-N-(2,2,3,3-tetrafluoro-2,3-dihydro-1,4-benzodioxin-6-yl)pyridine-2-carboxamide] displayed an IC50 (group: less than 500 nM) of under 500 nM.

Where the note is “group: between 1 and 3 μM”, `Cc1cc(CNc2ccccc2C(=O)Nc2ccc3c(c2)OC(F)(F)C(F)(F)O3)nc(Cl)n1` [Example 26, 2-{[(2-chloro-6-methylpyrimidin-4-yl)methyl]amino}-N-(2,2,3,3-tetrafluoro-2,3-dihydro-1,4-benzodioxin-6-yl)benzamide] came in with an IC50 of 1000 to 3000 nM.

`CNC(=O)c1cc(CNc2cc(F)ccc2C(=O)Nc2ccc3c(c2)OC(F)(F)O3)ccn1` [Example 33, 4-{[(2-{[(2,2-difluoro-1,3-benzodioxol-5-yl)amino]carbonyl}-5-fluorophenyl)amino]methyl}-N-methylpyridine-2-carboxamide] yielded an IC50 (group: less than 500 nM) of under 500 nM.

Take `CN(C)c1nccc(CNc2ccccc2C(=O)Nc2ccc3c(c2)OC(F)(F)O3)n1` [Example 48, N-(2,2-difluoro-1,3-benzodioxol-5-yl)-2-({[2-(dimethylamino)pyrimidin-4-yl]methyl}amino)benzamide]: the IC50 (group: less than 500 nM) was under 500 nM.

As for `O=C(Nc1ccc2c(c1)OC(F)(F)O2)c1ccccc1NCc1ccnc(NCCCn2ccnc2)c1` [Example 146, N-(2,2-difluoro-1,3-benzodioxol-5-yl)-2-{[(2-{[3-(1H-imidazol-1-yl)propyl]amino}pyridin-4-yl)methyl]amino}benzamidebis(trifluoroacetate)], under “group: less than 500 nM”, the IC50 was under 500 nM.

`CNC(=O)c1cc(CNc2ccccc2C(=O)Nc2ccc3c(c2)OC(F)(F)O3)ccn1` [Example 24, 4-{[(2-{[(2,2-difluoro-1,3-benzodioxol-5-yl)amino]carbonyl}phenyl)amino]methyl}-N-methylpyridine-2-carboxamide] displayed an IC50 (group: less than 500 nM) of under 500 nM.

The compound `CNc1nccc(CNc2ccccc2C(=O)Nc2ccc3c(c2)OC(F)(F)C(F)(F)O3)n1` [Example 51, 2-({[2-(methylamino)pyrimidin-4-yl]methyl}amino)-N-(2,2,3,3-tetrafluoro-2,3-dihydro-1,4-benzodioxin-6-yl)benzamide] registered an IC50 (group: less than 500 nM) of under 500 nM.

With `O=C(NC1CCN(Cc2ccccc2)C1)c1cc(CNc2ccccc2C(=O)Nc2ccc3c(c2)OC(F)(F)O3)ccn1` (centres unmarked) [Example 118, N-(1-benzylpyrrolidin-3-yl)-4-{[(2-{[(2,2-difluoro-1,3-benzodioxol-5-yl)amino]carbonyl}phenyl)amino]methyl}pyridine-2-carboxamide], the IC50 (group: between 1 and 3 μM) lay within 1000 to 3000 nM.

For the compound `O=C(Nc1ccc2c(c1)C(F)(F)OC(F)(F)O2)c1ccccc1NCc1ccnc(C2=NCCN2)c1` [Example 40, 2-({[2-(4,5-dihydro-1H-imidazol-2-yl)pyridin-4-yl]methyl}amino)-N-(2,2,4,4-tetrafluoro-4H-1,3-benzodioxin-6-yl)benzamide], the IC50 (group: between 500 nM and 1 μM (units in value)) lay in the range of 500 to 1000 nM.

For `CN(C)CCCCCNC(=O)c1cc(CNc2ccccc2C(=O)Nc2ccc3c(c2)OC(F)(F)O3)ccn1` [Example 100, 4-{[(2-{[(2,2-difluoro-1,3-benzodioxol-5-yl)amino]carbonyl}phenyl)amino]methyl)-N-[5-(dimethylamino)pentyl]pyridine2-carboxamide], for the setting “group: less than 500 nM”, the IC50 was under 500 nM.

`O=C(NCCO)c1cc(CNc2ccccc2C(=O)Nc2ccc3c(c2)OC(F)(F)O3)ccn1` [Example 91, 4-{[(2-{[(2,2-difluoro-1,3-benzodioxol-5-yl)amino]carbonyl}phenyl)amino]methyl}-N-(2-hydroxyethyl)pyridine-2-carboxamide] returned an IC50 (group: less than 500 nM) of under 500 nM.

The compound `O=C(NCCc1c[nH]c2ccccc12)c1cc(CNc2ccccc2C(=O)Nc2ccc3c(c2)OC(F)(F)O3)ccn1` [Example 102, 4-{[(2-{[(2,2-difluoro-1,3-benzodioxol-5-yl)amino]carbonyl}phenyl)amino]methyl}-N-[2-(1H-indol-3-yl)ethyl]pyridine-2-carboxamide] registered an IC50 (group: between 1 and 3 μM) of 1000 to 3000 nM.

`CCN(CC)CCCNC(=O)c1cc(CNc2ccccc2C(=O)Nc2ccc3c(c2)OC(F)(F)O3)ccn1` [Example 87, N-[3-(diethylamino)propyl]-4-{[(2-{[(2,2-difluoro-1,3-benzodioxol-5-yl)amino]carbonyl}phenyl)amino]methyl}pyridine-2-carboxamide] showed an IC50 (group: less than 500 nM) of under 500 nM.
